Experimental data reported in patent US11331299B2, “Medicinal use of serrulatane diterpenes” (The University of Sydney, priority 2016, dated 2022).
Like-named read-outs stand apart in the source and are kept apart here.

Tested on: 280 human cancer cell lines
Assay: OncoPanel cell proliferation assay (10-day)
Format: cell-based
Conditions: Homo sapiens; for IC50: read-out: Cell Count IC50; for EC50: read-out: Cell Count EC50
[1] = SW872, SW872, Soft Tissue - Sarcoma
[2] = SW 954, SW954, Female GU - Vulva
[3] = SW982, SW982, Soft Tissue - Sarcoma
[4] = SW1353, SW1353, Soft Tissue - Osteosarcoma
[5] = TE 125.T, Soft Tissue - Sarcoma
[6] = TE 381.T, Soft Tissue - Sarcoma
[7] = U2OS, Soft Tissue - Osteosarcoma
[8] = U-118-MG, U-118 MG, CNS - Glioma
[9] = VA-ES-BJ, Soft Tissue - Sarcoma
[10] = WM 266-4, WM-266-4, Skin (Melanoma)

CC(C)=CCC[C@H](C)[C@@H]1CC[C@@H](C)c2c1cc(C)c(O)c2O [Compound 4, 7,8-dihydroxyserrulat-14-ene]
GI50 (SW837, SW837, Colon, read-out: Cell Count GI50): 18.7 µM | IC50 (SW837, SW837, Colon): 18.9 µM | EC50 [1]: 4.39 µM | GI50 (SW872, SW872, Soft Tissue - Sarcoma, read-out: Cell Count GI50): 4.38 µM | IC50 [1]: 4.39 µM | EC50 (SW900, SW900, Lung - SCLC): 23.3 µM | GI50 (SW900, SW900, Lung - SCLC, read-out: Cell Count GI50): 23.1 µM | IC50 (SW900, SW900, Lung - SCLC): 23.3 µM | EC50 (SW948, SW948, Colon): 29.7 µM | GI50 (SW948, SW948, Colon, read-out: Cell Count GI50): > 30 µM | IC50 (SW948, SW948, Colon): > 30 µM | EC50 [2]: 21.7 µM | GI50 (SW 954, SW954, Female GU - Vulva, read-out: Cell Count GI50): 21.6 µM | IC50 [2]: 21.7 µM | EC50 [3]: 7.29 µM | GI50 (SW982, SW982, Soft Tissue - Sarcoma, read-out: Cell Count GI50): 7.26 µM | IC50 [3]: 7.3 µM | EC50 (SW1088, SW1088, CNS - Glioma): 8.77 µM | GI50 (SW1088, SW1088, CNS - Glioma, read-out: Cell Count GI50): 8.69 µM | IC50 (SW1088, SW1088, CNS - Glioma): 8.77 µM | EC50 [4]: 4.15 µM | GI50 (SW1353, SW1353, Soft Tissue - Osteosarcoma, read-out: Cell Count GI50): 4.14 µM | IC50 [4]: 4.15 µM | EC50 (SW1417, SW1417, Colon): > 30 µM | GI50 (SW1417, SW1417, Colon, read-out: Cell Count GI50): 29.3 µM | IC50 (SW1417, SW1417, Colon): > 30 µM | EC50 (SW1463, SW1463, Colon): 29.4 µM | GI50 (SW1463, SW1463, Colon, read-out: Cell Count GI50): 29.5 µM | IC50 (SW1463, SW1463, Colon): 29.6 µM | EC50 (SW1783, SW1783, CNS - Glioma): 12.3 µM | GI50 (SW1783, SW1783, CNS - Glioma, read-out: Cell Count GI50): 12.1 µM | IC50 (SW1783, SW1783, CNS - Glioma): 12.3 µM | EC50 (SW-403, SW403, Colon): > 30 µM | GI50 (SW-403, SW403, Colon, read-out: Cell Count GI50): > 30 µM | IC50 (SW-403, SW403, Colon): > 30 µM | EC50 (SW-620, SW620, Colon): 11.3 µM | GI50 (SW-620, SW620, Colon, read-out: Cell Count GI50): 11.3 µM | IC50 (SW-620, SW620, Colon): 11.3 µM | EC50 (SiHa, Female GU - Cervix): 11.3 µM | GI50 (SiHa, Female GU - Cervix, read-out: Cell Count GI50): 13.2 µM | IC50 (SiHa, Female GU - Cervix): 13.5 µM | EC50 (T24, Bladder): 12.2 µM | GI50 (T24, Bladder, read-out: Cell Count GI50): 12.2 µM | IC50 (T24, Bladder): 12.2 µM | EC50 (T47D, Breast): 3.28 µM | GI50 (T47D, Breast, read-out: Cell Count GI50): 2.92 µM | IC50 (T47D, Breast): 3.28 µM | EC50 (T98G, CNS - Glioma): 24.5 µM | GI50 (T98G, CNS - Glioma, read-out: Cell Count GI50): 24.5 µM | IC50 (T98G, CNS - Glioma): 24.5 µM | EC50 (TCC-SUP, TCCSUP, Bladder): 8.91 µM | GI50 (TCC-SUP, TCCSUP, Bladder, read-out: Cell Count GI50): 8.67 µM | IC50 (TCC-SUP, TCCSUP, Bladder): 8.91 µM | EC50 [5]: 23.6 µM | GI50 (TE 125.T, Soft Tissue - Sarcoma, read-out: Cell Count GI50): 17 µM | IC50 [5]: 23.6 µM | EC50 [6]: 6.28 µM | GI50 (TE 381.T, Soft Tissue - Sarcoma, read-out: Cell Count GI50): 6.08 µM | IC50 [6]: 6.28 µM | EC50 (TF-1, Leukemia): 6.57 µM | GI50 (TF-1, Leukemia, read-out: Cell Count GI50): 6.26 µM | IC50 (TF-1, Leukemia): 6.57 µM | EC50 (THP-1, Thp1, Leukemia): 12 µM | GI50 (THP-1, Thp1, Leukemia, read-out: Cell Count GI50): 11.9 µM | IC50 (THP-1, Thp1, Leukemia): 12 µM | EC50 (TUR, Lymphoma): 8.98 µM | GI50 (TUR, Lymphoma, read-out: Cell Count GI50): 8.98 µM | IC50 (TUR, Lymphoma): 8.98 µM | EC50 [7]: 4.21 µM | GI50 (U2OS, Soft Tissue - Osteosarcoma, read-out: Cell Count GI50): 4.2 µM | IC50 [7]: 4.21 µM | EC50 (U138-MG, U-138MG, CNS - Glioma): 25 µM | GI50 (U138-MG, U-138MG, CNS - Glioma, read-out: Cell Count GI50): 24.9 µM | IC50 (U138-MG, U-138MG, CNS - Glioma): 25 µM | EC50 (U266B1, Myeloma): 10.1 µM | GI50 (U266B1, Myeloma, read-out: Cell Count GI50): 9.81 µM | IC50 (U266B1, Myeloma): 10.1 µM | EC50 (U-87 MG, CNS - Glioma): 13.8 µM | GI50 (U-87 MG, CNS - Glioma, read-out: Cell Count GI50): 13.6 µM | IC50 (U-87 MG, CNS - Glioma): 13.8 µM | EC50 [8]: 13.9 µM | GI50 (U-118-MG, U-118 MG, CNS - Glioma, read-out: Cell Count GI50): 13.6 µM | IC50 [8]: 13.9 µM | EC50 (UMUC3, UM-UC-3, Bladder): 3.83 µM | GI50 (UMUC3, UM-UC-3, Bladder, read-out: Cell Count GI50): 3.82 µM | IC50 (UMUC3, UM-UC-3, Bladder): 3.83 µM | EC50 [9]: 15.2 µM | GI50 (VA-ES-BJ, Soft Tissue - Sarcoma, read-out: Cell Count GI50): 15 µM | IC50 [9]: 15.2 µM | EC50 [10]: 10.9 µM | GI50 (WM 266-4, WM-266-4, Skin (Melanoma), read-out: Cell Count GI50): 10.8 µM | IC50 [10]: 10.9 µM | EC50 (WiDr, Colon): 12.8 µM | GI50 (WiDr, Colon, read-out: Cell Count GI50): 12.8 µM | IC50 (WiDr, Colon): 12.8 µM | EC50 (Y79, Eye): 5.65 µM | GI50 (Y79, Eye, read-out: Cell Count GI50): 5.34 µM | IC50 (Y79, Eye): 5.65 µM | EC50 (YAPC, Pancreas): 18 µM | GI50 (YAPC, Pancreas, read-out: Cell Count GI50): 18.2 µM | IC50 (YAPC, Pancreas): 18.2 µM | GI50 (strong: Daudi, DOHH-2, GA-10, L-428, ST486, MX1, NALM-6, T47D, CEM-C1, A-673, read-out: GI50): 1.23 to 2.92 µM
